Reference: US4321381A, “Ergot derivatives” (Farmitalia Carlo Erba S.p.A., priority 1978, dated 1982)

Tests used:
[1] = Acute toxicity (LD50) in mice; format: in vivo, mouse; conditions: mouse, in vivo; male mice; oral; observed for seven days
Description: Evaluation of the Toxicity (LD50)
Ten male mice for each group were orally treated with drugs at different dose levels for the determination of lethal dose 50 (LD50).

[2] = test system: spontaneously hypertensive male rats, strain MHS; assay: Anti-hypertensive activity in the spontaneously hypertensive rat (MHS): blood pressure and heart rate at the tail; format: in vivo
Protocol: 1. Spontaneously Hypertensive Rat (MHS)
Four spontaneously hypertensive male rats, strain MHS, weight 250 to 300 g for each group were used. The animals were treated for four consecutive days. The drugs were administered by gastric gavage while suspended in 5% arabic gum (0.2 ml/100 g body weight), and blood pressure (BP) and heart rate (HR) were measured at the tail by BP Recorder W+W. Blood pressure and heart rate were measured on the first and fourth day of treatment 1 hour before and 1 and 5 hours after drug administration.

[3] = test system: normotensive rats; assay: Blood pressure and heart rate in the conscious normotensive rat (NR); format: in vivo; conditions: 5 mg/kg os
Protocol: Blood pressure recordings have been made in conscious normotensive unrestrained rats weighing approximately 300 g, via a catheter chronically inserted into the left common carotid artery. Implantation of arterial cannula was made under sodium pentobarbital anesthesia (50 mg/kp i.p.) A 1 cm long incision was made through the previously shaved ventral surface of the neck and the tissues overlying the trachea parted by blunt dissection to reveal the carotid artery. The polyethylene catheter used was made with PE 50 tubing, previously filled with saline containing 250 I.U./ml heparin. The tip of the cannula was pushed at least 2 cm inside the vessel toward the heart. The cannula was then firmly tied and passed beneath the skin to emerge from a small incision in the back of the neck. During the post-operative period and before the start of each recording session, the cannula was flushed through daily with saline containing heparin (250 I.U./ml). The experiments were performed two days after surgery. Drugs were administered by gastric gavage.

SMILES: CN1C[C@H](CC(C#N)C(N)=O)C[C@@H]2c3cccc4[nH]c(Br)c(c34)C[C@H]21 (stereo partly drawn) [Example 1139, 2-Cyano-3-(2-bromo-6'-methylergoline-8'β)-propionamide]
- LD50 at 168 h [1]: 125 mg/kg
- Change in BP, 1 hr after dose, first day ([2]; 2 mg/kg os): -13 mm Hg
- Change in HR, 1 hr after dose, first day ([2]; 2 mg/kg os): +7 b/min
- Change in HR, 5 hr after dose, first day ([2]; 2 mg/kg os): +12 b/min
- Change in BP, 5 hrs after dose, first day ([2]; 2 mg/kg os): -23 mm Hg
- Change in BP, 1 hr after dose, fourth day ([2]; 2 mg/kg os): -18 mm Hg
- Change in HR, 1 hr after dose, fourth day ([2]; 2 mg/kg os): +47 b/min
- Change in HR, 5 hr after dose, fourth day ([2]; 2 mg/kg os): +35 b/min
- Change in BP, 5 hrs after dose, fourth day ([2]; 2 mg/kg os): -12 mm Hg
- Change in BP, 1 hr after dose, first day ([2]; 5 mg/kg os): -25 mm Hg
- Change in HR, 1 hr after dose, first day ([2]; 5 mg/kg os): +28 b/min
- Change in HR, 5 hr after dose, first day ([2]; 5 mg/kg os): +13 b/min
- Change in BP, 5 hrs after dose, first day ([2]; 5 mg/kg os): -24 mm Hg
- Change in BP, 1 hr after dose, fourth day ([2]; 5 mg/kg os): -12 mm Hg
- Change in HR, 1 hr after dose, fourth day ([2]; 5 mg/kg os): -10 b/min
- Change in HR, 5 hr after dose, fourth day ([2]; 5 mg/kg os): -12 b/min
- Change in BP, 5 hrs after dose, fourth day ([2]; 5 mg/kg os): -13 mm Hg
- Change in Blood Pressure after Treatment, 30' [3]: -5 mm Hg
- Change in heart rate after treatment, 30' [3]: 0 b/min
- Change in Blood Pressure after Treatment, 60' [3]: -12 mm Hg
- Change in heart rate after treatment, 60' [3]: +10 b/min
- Change in Blood Pressure after Treatment, 120' [3]: -12 mm Hg
- Change in heart rate after treatment, 120' [3]: +10 b/min
- Change in Blood Pressure after Treatment, 180' [3]: -10 mm Hg
- Change in heart rate after treatment, 180' [3]: -5 b/min
- Change in Blood Pressure after Treatment, 240' [3]: -5 mm Hg
- Change in heart rate after treatment, 240' [3]: 0 b/min
- Change in Blood Pressure after Treatment, 360' [3]: 0 mm Hg
- Change in heart rate after treatment, 360' [3]: +15 b/min
- Change in Blood Pressure after Treatment, 24h [3]: +2 mm Hg
- Change in heart rate after treatment, 24h [3]: 0 b/min

SMILES: NNc1nncc2ccccc12 [Hydralazine, hydralazine, reference compound]
- LD50 at 168 h [1]: 122 mg/kg
- Change in BP, 1 hr after dose, first day ([2]; 2 mg/kg os): +2 mm Hg
- Change in HR, 1 hr after dose, first day ([2]; 2 mg/kg os): +10 b/min
- Change in HR, 5 hr after dose, first day ([2]; 2 mg/kg os): -28 b/min
- Change in BP, 5 hrs after dose, first day ([2]; 2 mg/kg os): +18 mm Hg
- Change in BP, 1 hr after dose, fourth day ([2]; 2 mg/kg os): +7 mm Hg
- Change in HR, 1 hr after dose, fourth day ([2]; 2 mg/kg os): +43 b/min
- Change in HR, 5 hr after dose, fourth day ([2]; 2 mg/kg os): +23 b/min
- Change in BP, 5 hrs after dose, fourth day ([2]; 2 mg/kg os): +15 mm Hg
- Change in BP, 1 hr after dose, first day ([2]; 5 mg/kg os): -52 mm Hg
- Change in HR, 1 hr after dose, first day ([2]; 5 mg/kg os): -45 b/min
- Change in HR, 5 hr after dose, first day ([2]; 5 mg/kg os): +12 b/min
- Change in BP, 5 hrs after dose, first day ([2]; 5 mg/kg os): -38 mm Hg
- Change in BP, 1 hr after dose, fourth day ([2]; 5 mg/kg os): -7 mm Hg
- Change in HR, 1 hr after dose, fourth day ([2]; 5 mg/kg os): +10 b/min
- Change in HR, 5 hr after dose, fourth day ([2]; 5 mg/kg os): +12 b/min
- Change in BP, 5 hrs after dose, fourth day ([2]; 5 mg/kg os): -8 mm Hg
- Change in Blood Pressure after Treatment, 30' [3]: -19 mm Hg
- Change in heart rate after treatment, 30' [3]: +70 b/min
- Change in Blood Pressure after Treatment, 60' [3]: -13 mm Hg
- Change in heart rate after treatment, 60' [3]: +40 b/min
- Change in Blood Pressure after Treatment, 120' [3]: -10 mm Hg
- Change in heart rate after treatment, 120' [3]: +21 b/min
- Change in Blood Pressure after Treatment, 180' [3]: -7 mm Hg
- Change in heart rate after treatment, 180' [3]: +9 b/min
- Change in Blood Pressure after Treatment, 240' [3]: -5 mm Hg
- Change in heart rate after treatment, 240' [3]: +21 b/min
- Change in Blood Pressure after Treatment, 360' [3]: -7 mm Hg
- Change in heart rate after treatment, 360' [3]: +12 b/min
- Change in Blood Pressure after Treatment, 24h [3]: 0 mm Hg
- Change in heart rate after treatment, 24h [3]: +3 b/min
